The source made the active and inactive calls.
Columns and labels:
Cytochrome P450 1A2 = target: T1, Cytochrome P450 1A2 (Homo sapiens, UniProt P05177);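 note: PubChem cytochrome P450 panel assay, CYP1A2 panel member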
T1 sequence (P05177 whole entry): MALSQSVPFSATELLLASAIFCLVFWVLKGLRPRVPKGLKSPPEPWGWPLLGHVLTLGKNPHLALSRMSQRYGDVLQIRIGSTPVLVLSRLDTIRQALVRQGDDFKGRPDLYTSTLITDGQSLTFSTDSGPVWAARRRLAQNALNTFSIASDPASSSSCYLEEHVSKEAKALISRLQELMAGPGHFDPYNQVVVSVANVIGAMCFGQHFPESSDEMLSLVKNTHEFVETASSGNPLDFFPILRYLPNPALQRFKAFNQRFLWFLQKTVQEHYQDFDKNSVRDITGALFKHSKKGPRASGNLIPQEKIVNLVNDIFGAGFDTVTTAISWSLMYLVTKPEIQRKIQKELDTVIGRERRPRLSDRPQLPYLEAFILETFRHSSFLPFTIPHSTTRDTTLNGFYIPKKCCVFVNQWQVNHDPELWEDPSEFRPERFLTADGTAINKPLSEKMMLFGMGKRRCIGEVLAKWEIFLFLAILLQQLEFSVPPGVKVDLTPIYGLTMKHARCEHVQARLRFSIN

Cytochrome P450 3A4 = Cytochrome P450 3A4 (Homo sapiens, UniProt P08684);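 note: CYP3A4 tested as one member of a cytochrome P450 panel screen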
Cytochrome P450 2C9 = Cytochrome P450 2C9 (Homo sapiens, UniProt P11712)
Cytochrome P450 2D6 = Cytochrome P450 2D6 (Homo sapiens, UniProt P10635);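 note: CYP2D6 member of a cytochrome P450 panel assay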
Estrogen receptor beta [1] = target: T2, Estrogen receptor beta (Homo sapiens, UniProt Q92731); experiment: ERβ–SRC-3 coactivator interaction inhibitors, confirmation, orthogonal assay, biochemical, ELISA, streptavidin-HRP readout (AID 1060)
[2] = target: Glyceraldehyde-3-phosphate dehydrogenase (Homo sapiens, UniProt P04406)
Estrogen receptor beta [3] = target: T2, Estrogen receptor beta
[4] = target: T3, Tyrosine-protein phosphatase non-receptor type 7 (Homo sapiens, UniProt P35236); assay type: functional
T3 sequence (P35236 whole entry): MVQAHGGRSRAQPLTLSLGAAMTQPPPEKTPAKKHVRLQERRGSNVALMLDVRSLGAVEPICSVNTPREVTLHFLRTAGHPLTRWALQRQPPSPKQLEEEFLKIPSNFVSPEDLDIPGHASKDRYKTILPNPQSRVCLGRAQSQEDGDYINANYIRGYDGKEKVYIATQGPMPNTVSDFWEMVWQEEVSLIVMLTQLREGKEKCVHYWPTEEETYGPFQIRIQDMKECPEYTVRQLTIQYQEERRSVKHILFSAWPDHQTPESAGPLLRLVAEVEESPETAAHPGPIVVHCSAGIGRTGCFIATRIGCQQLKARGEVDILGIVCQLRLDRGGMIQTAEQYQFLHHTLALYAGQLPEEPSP

[5] = target: T4, Dual specificity protein phosphatase 6 (Rattus norvegicus, UniProt Q64346); assay type: functional
T4 sequence (Q64346 whole entry): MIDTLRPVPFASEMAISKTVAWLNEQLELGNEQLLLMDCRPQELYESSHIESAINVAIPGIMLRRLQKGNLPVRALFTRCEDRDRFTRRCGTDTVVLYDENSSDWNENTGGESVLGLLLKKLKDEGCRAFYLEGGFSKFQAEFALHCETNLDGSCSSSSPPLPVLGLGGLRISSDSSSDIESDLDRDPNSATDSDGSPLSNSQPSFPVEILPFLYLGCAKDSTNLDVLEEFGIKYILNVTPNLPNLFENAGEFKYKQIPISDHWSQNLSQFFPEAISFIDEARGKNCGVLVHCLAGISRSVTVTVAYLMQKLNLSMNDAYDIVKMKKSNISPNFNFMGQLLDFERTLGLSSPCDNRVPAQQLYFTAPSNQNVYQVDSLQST

[6] = target: T5, Carboxy-terminal domain RNA polymerase II polypeptide A small phosphatase 1 (Homo sapiens, UniProt Q9GZU7); experiment: inhibitors of CTDSP1, concentration-response testing, biochemical assay, absorbance-based, actives from ultra-high-throughput screening (AID 540297); assay type: functional
T5 sequence (Q9GZU7 whole entry): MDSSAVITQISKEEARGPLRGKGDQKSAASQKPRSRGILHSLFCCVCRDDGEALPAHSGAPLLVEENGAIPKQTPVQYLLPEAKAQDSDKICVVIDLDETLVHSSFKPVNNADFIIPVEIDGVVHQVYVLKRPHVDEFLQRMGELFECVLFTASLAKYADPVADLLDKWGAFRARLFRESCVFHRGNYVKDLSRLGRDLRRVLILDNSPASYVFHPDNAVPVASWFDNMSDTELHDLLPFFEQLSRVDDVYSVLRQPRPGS

Bcl-2-like protein 10 = target: T6, Bcl-2-like protein 10 (Homo sapiens, UniProt Q9HD36); experiment: displacers of TR3 peptide from Bcl-B, primary screen, selectivity assay for Bfl-1 inhibitor project, biochemical, fluorescence polarization, FITC-TR3 peptide (AID 748);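 note: fluorescence polarization from a fluorescein-labelled TR3 peptide binding purified Bcl-B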
T6 sequence (Q9HD36 whole entry): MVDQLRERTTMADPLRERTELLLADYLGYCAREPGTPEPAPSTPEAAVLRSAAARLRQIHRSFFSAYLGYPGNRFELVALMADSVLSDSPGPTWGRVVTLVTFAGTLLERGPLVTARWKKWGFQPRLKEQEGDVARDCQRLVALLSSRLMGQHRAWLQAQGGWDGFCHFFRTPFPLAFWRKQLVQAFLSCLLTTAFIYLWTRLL

[7] = target: T4, Dual specificity protein phosphatase 6
Beta Lactamase = Beta Lactamase (Pseudomonas aeruginosa, UniProt Q932Y6); experiment: beta-lactamase reporter inhibitor potency, dose response, artefact control for TLR9-MyD88 binding inhibitor project, BLA reporter cells, FRET fluorescence (AID 588341); assay type: cell-based;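 note: cell based assay in CHO-K1 cells stably expressing beta-lactamase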
[8] = target: T7, Endoribonuclease toxin MazF (Escherichia coli K-12, UniProt P0AE70); experiment: fluorescent RNA oligo signal without MazF, dose response, counter-screen for MazEF activator project, biochemical, fluorescence, single-stranded RNase substrate (AID 588502); assay type: functional
T7 sequence (P0AE70 whole entry): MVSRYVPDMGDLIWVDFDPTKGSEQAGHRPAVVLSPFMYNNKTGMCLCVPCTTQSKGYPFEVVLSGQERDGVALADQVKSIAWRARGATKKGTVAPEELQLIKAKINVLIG

CHO = experiment: cytotoxicity in TLR9-MyD88 CHO cells, dose response, cytotoxicity control for TLR9-MyD88 binding inhibitor project, cell-based, luminescence (AID 588339); assay type: functional, hamster; conditions: Cricetulus griseus;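 note: CHO cells stably coexpressing TLR9 and MyD88 fusions from primary screen; compound exposure lasted 48 hours before viability readout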
[9] = target: T7, Endoribonuclease toxin MazF; experiment: MazF toxin RNase activators, dose response, biochemical, fluorescence, single-stranded RNA substrate, uHTS hits (AID 588481); assay type: functional
[10] = target: T8, Alkaline phosphatase, tissue-nonspecific isozyme (Homo sapiens, UniProt P05186); experiment: inhibition of tissue-nonspecific alkaline phosphatase – biochemical, dose response (AID 488882); assay type: functional
T8 sequence (P05186 whole entry): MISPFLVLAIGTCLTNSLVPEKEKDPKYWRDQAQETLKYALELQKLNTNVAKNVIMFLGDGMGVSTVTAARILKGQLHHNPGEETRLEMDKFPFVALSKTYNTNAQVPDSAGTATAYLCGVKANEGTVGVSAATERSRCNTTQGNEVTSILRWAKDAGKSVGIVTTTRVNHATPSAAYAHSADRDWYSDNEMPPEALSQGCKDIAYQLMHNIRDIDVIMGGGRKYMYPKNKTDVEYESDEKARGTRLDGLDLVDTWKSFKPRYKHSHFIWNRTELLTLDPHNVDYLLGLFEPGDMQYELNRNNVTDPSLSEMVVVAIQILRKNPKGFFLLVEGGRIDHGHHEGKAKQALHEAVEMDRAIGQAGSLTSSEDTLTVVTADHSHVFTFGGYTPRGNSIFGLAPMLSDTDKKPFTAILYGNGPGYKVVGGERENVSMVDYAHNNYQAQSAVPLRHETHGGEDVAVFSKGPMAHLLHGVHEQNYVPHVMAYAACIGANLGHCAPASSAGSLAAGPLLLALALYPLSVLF

[11] = target: Dual specificity tyrosine-phosphorylation-regulated kinase 1A (Rattus norvegicus, UniProt Q63470); assay type: biochemical, Homo sapiens
[12] = target: T9, Intestinal-type alkaline phosphatase (Homo sapiens, UniProt P09923); experiment: human IAP inhibitors, dose response, biochemical, luminescent, uHTS hits, set 2 (AID 488793); assay type: functional
[13] = target: T10, Rac GTPase-activating protein 1 (Homo sapiens, UniProt Q9H0H5); experiment: MgcRacGAP GTPase-activating activity inhibitors, confirmation, biochemical, ADP Hunter fluorescence, primary and confirmatory (AID 624330); assay type: functional
T10 sequence (Q9H0H5 whole entry): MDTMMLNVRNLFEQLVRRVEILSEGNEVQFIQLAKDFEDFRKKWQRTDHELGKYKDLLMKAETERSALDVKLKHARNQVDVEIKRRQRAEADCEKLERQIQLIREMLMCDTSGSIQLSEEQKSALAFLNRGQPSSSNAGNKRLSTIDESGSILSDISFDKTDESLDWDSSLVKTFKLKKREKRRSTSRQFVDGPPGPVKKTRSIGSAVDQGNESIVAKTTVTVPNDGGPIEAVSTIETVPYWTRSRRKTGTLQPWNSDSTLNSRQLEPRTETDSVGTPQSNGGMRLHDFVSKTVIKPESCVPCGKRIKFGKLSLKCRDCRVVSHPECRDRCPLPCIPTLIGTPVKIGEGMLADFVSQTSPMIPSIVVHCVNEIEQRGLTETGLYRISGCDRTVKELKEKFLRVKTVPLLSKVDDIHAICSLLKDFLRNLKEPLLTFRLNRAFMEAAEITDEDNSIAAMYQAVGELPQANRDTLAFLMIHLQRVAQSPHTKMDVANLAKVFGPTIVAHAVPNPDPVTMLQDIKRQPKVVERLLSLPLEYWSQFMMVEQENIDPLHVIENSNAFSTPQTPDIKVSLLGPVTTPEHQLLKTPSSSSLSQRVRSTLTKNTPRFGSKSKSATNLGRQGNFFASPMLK

[14] = target: Intestinal-type alkaline phosphatase (Mus musculus, UniProt P24822); experiment: PubChem AID 488874; assay type: functional
[15] = target: T9, Intestinal-type alkaline phosphatase; experiment: Dose Response confirmation of uHTS hits from a small molecule inhibitors of human intestinal alkaline phosphatase via a luminescent assay. [Related pubchem assays (depositor defined):AID2544, AID2574]; assay type: functional
[16] = target: T11, Microphthalmia-associated transcription factor (Homo sapiens, UniProt O75030); experiment: TRPM1 promoter luciferase signal decrease, dose response, MITF inhibitor project, cell-based, SK-MEL-5, cherry-picked, set 3 (AID 493073); assay type: functional
T11 sequence (O75030 whole entry): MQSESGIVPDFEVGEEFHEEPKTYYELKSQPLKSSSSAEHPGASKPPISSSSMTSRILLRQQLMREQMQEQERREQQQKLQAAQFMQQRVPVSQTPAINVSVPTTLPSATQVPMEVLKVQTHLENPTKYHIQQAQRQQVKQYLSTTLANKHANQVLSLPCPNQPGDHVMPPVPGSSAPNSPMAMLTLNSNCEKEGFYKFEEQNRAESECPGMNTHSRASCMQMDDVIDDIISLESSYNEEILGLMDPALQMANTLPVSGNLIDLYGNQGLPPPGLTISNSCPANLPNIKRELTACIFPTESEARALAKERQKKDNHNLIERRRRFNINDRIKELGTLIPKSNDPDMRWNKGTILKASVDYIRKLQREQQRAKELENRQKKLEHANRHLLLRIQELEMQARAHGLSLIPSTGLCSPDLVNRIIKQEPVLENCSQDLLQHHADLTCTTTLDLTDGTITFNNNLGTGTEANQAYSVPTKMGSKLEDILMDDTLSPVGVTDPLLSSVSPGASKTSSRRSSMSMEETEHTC

Mu-type opioid receptor [17] = target: T12, Mu-type opioid receptor (Homo sapiens, UniProt P35372); experiment: MOR agonists by imaging, SAR follow-up, image-based (AID 2352); assay type: functional
Mu-type opioid receptor [18] = target: T12, Mu-type opioid receptor; experiment: MOR antagonists, SAR follow-up, image-based (AID 2420); assay type: functional;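 note: compounds added before stimulation of receptor with agonist DAMGO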
[19] = target: T13, Delta-type opioid receptor (Homo sapiens, UniProt P41143); experiment: DOR agonists, SAR follow-up, image-based (AID 2370); assay type: functional
[20] = target: T13, Delta-type opioid receptor; experiment: DOR antagonists, SAR follow-up, image-based (AID 2357); assay type: functional
[21] = target: T14, Kappa-type opioid receptor (Homo sapiens, UniProt P41145); experiment: kappa opioid receptor blockers, cell-based, luminescence, beta-arrestin, SAR follow-up (AID 2285); assay type: functional
[22] = target: T14, Kappa-type opioid receptor; experiment: KOR agonist analogs, imaging readout, SAR follow-up, image-based (AID 2359); assay type: functional
[23] = target: T14, Kappa-type opioid receptor; experiment: KOR antagonists by imaging, SAR follow-up, image-based (AID 2348); assay type: functional

T9 sequence (P09923 whole entry): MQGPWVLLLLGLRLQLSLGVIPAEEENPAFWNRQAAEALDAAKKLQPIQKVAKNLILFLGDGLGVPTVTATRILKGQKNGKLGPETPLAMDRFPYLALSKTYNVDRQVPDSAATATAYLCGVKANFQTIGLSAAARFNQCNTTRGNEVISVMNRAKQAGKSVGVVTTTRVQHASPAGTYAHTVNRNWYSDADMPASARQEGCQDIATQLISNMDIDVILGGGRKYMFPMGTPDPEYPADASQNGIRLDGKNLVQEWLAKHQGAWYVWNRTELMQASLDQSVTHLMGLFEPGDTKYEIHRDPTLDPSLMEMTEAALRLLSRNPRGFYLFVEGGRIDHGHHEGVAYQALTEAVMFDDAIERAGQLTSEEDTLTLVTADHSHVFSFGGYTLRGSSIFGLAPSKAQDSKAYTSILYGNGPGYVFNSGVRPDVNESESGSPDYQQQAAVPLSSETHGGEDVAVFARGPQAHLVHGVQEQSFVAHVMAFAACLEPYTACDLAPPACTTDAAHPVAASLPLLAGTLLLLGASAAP
T14 sequence (P41145 whole entry): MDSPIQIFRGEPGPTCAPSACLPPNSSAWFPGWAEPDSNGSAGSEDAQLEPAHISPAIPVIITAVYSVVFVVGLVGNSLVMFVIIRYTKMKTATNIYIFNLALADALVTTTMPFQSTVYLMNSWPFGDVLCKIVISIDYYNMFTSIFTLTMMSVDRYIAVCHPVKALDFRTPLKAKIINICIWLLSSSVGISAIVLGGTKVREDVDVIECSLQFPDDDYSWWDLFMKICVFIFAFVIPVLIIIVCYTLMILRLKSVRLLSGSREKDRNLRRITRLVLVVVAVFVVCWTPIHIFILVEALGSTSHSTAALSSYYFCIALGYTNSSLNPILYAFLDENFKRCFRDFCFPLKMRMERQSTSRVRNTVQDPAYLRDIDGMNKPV
Sequence of Intestinal-type alkaline phosphatase (Mus musculus, UniProt P24822) (P24822 whole entry): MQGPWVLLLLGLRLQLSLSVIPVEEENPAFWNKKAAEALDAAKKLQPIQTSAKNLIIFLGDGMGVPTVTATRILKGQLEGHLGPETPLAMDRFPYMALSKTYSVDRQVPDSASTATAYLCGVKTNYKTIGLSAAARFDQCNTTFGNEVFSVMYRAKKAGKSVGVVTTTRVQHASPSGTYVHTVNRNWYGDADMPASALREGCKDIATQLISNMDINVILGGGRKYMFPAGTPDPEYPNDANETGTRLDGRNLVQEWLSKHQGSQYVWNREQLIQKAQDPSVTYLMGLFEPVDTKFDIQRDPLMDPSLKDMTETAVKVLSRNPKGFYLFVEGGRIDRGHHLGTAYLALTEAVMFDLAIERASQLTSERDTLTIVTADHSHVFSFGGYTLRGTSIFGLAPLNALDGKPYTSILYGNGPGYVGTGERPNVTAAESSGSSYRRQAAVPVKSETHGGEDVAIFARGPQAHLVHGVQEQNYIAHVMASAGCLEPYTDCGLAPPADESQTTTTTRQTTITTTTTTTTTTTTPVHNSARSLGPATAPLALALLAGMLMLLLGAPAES
T12 sequence (P35372 whole entry): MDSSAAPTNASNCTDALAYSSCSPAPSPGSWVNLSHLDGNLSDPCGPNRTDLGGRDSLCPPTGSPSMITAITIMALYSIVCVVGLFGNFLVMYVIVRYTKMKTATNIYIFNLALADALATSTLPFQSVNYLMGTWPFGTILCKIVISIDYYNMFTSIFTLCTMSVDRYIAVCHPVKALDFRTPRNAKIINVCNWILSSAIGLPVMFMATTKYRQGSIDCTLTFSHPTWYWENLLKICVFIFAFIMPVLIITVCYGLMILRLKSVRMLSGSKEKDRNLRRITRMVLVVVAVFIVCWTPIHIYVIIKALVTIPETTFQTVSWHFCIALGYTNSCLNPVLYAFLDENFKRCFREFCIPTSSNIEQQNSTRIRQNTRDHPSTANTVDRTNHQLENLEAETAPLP
T13 sequence (P41143 whole entry): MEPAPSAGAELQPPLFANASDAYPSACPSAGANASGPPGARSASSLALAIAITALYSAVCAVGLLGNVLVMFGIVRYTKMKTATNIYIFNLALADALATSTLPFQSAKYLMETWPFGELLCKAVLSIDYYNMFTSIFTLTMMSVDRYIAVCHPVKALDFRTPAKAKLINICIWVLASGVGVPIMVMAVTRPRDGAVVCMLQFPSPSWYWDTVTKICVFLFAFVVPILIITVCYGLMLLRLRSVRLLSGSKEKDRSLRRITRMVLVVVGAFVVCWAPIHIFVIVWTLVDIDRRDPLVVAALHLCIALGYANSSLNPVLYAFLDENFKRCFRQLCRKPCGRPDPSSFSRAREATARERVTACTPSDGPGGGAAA
T2 sequence (Q92731 whole entry): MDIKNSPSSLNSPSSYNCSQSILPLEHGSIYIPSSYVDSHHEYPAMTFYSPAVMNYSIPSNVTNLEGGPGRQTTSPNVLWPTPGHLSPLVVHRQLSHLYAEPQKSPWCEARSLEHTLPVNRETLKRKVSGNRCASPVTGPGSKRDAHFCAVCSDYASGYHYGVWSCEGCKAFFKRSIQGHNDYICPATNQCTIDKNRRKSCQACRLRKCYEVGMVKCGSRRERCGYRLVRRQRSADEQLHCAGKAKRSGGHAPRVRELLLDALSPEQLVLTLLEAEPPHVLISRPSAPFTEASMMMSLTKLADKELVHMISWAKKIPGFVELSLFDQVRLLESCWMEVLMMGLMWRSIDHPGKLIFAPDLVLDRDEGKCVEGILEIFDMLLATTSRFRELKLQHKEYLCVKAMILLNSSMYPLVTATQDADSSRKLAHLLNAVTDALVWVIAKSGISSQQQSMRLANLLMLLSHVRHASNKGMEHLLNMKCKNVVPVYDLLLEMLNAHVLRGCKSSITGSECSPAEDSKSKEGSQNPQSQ
Sequence of Cytochrome P450 2D6 (P10635 whole entry): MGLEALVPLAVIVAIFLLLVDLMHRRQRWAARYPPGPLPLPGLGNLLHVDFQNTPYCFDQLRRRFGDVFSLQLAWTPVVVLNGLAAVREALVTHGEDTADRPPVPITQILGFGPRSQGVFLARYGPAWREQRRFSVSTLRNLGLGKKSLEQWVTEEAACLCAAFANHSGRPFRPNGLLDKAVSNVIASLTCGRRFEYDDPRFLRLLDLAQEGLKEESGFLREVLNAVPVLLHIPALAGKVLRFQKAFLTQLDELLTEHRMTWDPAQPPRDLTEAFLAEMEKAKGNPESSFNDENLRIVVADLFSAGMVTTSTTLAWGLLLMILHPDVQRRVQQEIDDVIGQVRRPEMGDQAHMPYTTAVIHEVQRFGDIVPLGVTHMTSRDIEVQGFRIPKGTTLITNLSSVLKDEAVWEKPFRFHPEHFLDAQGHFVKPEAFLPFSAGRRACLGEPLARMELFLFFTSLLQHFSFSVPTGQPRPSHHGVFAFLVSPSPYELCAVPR
Sequence of Beta Lactamase (Q932Y6 whole entry): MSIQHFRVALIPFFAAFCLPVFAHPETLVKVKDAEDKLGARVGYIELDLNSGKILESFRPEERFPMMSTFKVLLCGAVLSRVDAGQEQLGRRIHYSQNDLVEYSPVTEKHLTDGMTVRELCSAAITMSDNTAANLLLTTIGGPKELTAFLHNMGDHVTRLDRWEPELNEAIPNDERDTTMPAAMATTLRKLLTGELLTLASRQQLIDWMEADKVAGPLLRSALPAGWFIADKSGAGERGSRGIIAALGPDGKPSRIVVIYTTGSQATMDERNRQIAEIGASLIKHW
Sequence of Cytochrome P450 3A4 (P08684 whole entry): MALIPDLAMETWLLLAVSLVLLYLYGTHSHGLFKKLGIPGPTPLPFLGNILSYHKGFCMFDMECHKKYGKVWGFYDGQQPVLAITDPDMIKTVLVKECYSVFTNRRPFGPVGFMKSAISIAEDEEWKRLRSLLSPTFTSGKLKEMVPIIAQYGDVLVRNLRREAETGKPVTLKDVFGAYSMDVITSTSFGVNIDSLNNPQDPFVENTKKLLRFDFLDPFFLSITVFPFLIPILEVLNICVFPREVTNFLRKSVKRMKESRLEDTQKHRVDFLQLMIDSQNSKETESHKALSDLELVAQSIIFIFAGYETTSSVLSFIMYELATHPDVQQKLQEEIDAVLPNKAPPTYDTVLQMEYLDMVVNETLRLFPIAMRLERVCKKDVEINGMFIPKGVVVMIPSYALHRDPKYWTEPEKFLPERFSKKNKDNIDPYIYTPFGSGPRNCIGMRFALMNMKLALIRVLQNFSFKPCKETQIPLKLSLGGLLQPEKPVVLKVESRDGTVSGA
Sequence of Glyceraldehyde-3-phosphate dehydrogenase (P04406 whole entry): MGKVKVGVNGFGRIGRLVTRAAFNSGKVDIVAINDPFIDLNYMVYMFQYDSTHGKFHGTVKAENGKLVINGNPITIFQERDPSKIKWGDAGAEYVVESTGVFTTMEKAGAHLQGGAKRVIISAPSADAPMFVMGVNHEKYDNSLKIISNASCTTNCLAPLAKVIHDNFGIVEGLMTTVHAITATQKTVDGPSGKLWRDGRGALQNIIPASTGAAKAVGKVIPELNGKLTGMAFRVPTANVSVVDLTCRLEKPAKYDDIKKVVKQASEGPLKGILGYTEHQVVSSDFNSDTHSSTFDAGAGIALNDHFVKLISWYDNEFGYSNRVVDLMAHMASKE
Sequence of Cytochrome P450 2C9 (P11712 whole entry): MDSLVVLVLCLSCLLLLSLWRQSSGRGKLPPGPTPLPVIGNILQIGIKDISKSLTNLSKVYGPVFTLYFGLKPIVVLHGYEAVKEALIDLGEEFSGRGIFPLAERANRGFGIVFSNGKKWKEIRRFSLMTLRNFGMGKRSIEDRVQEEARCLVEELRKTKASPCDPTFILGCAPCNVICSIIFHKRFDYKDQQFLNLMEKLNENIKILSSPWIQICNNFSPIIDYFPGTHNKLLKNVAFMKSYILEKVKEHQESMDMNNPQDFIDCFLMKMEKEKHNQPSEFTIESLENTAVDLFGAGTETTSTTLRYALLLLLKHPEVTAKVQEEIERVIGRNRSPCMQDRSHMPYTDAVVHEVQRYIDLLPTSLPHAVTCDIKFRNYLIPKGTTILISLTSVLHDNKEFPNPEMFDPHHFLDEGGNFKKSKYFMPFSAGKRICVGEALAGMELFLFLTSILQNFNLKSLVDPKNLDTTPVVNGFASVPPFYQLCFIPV

O=P(O)(CP(=O)(c1ccccc1)c1ccccc1)c1ccccc1O
AC50 (Cytochrome P450 1A2): 28.2 µM (inconclusive)
AC50 (Cytochrome P450 3A4): 17.8 µM (inconclusive)
AC50 (Cytochrome P450 2C9): 0.1 µM (inconclusive)
AC50 (Cytochrome P450 2D6): inconclusive

CCCCCc1nnc(NC(=O)Cc2cccs2)s1
IC50 (Estrogen receptor beta [1]): > 50 µM (not active)
IC50 [2]: 98.6 µM (active)
IC50 (Estrogen receptor beta [3]): < 1.56 µM (active)
IC50 [4]: 6.28 µM (active)
IC50 [5]: 17.2 µM (active)
IC50 [6]: 3.73 µM (active)
IC50 (Bcl-2-like protein 10): 12.5 µM (active)
IC50 [7]: 21.4 µM (active)

CC1C/C(=C/c2cccn2C)C(=O)/C(=C/c2cccn2C)C1 (configuration not stated)
IC50 (Beta Lactamase): 4.39 µM (active)
EC50 [8]: > 99 µM (inactive)
IC50 (CHO): > 49.7 µM (inactive)
EC50 [9]: > 99 µM (inactive)

COc1ccc(C=C2C(=O)c3ccccc3C2=O)cc1O
IC50 [10]: 15.6 µM (active)
AC50 [11]: 1.7 µM (active)
IC50 [12]: 15.6 µM (active)
IC50 [13]: 46.8 µM (active)
IC50 [14]: 15 µM (active)
IC50 [15]: 12.7 µM (inactive)

CC(C)=CCc1c(O)ccc2c1OC(c1ccc(O)c(O)c1)CC2=O (configuration not stated)
IC50 [10]: 88.8 µM (active)
AC50 [11]: 3.68 µM (active)
IC50 [12]: 1.97 µM (active)
AC50 [16]: 11.7 µM (active)
EC50 [8]: > 99 µM (inactive)
IC50 [14]: 11.5 µM (active)
EC50 [9]: > 99 µM (inactive)
IC50 [15]: 6.64 µM (active)

CC(=O)Nc1ccc(S(=O)(=O)NCc2ccc(C(=O)NCCN(C)Cc3ccccc3)cc2)cc1
EC50 (Mu-type opioid receptor [17]): > 32 µM (inactive)
IC50 (Mu-type opioid receptor [18]): > 32 µM (inactive)
EC50 [19]: > 32 µM (inactive)
IC50 [20]: > 32 µM (inactive)
IC50 [21]: > 10 µM (inactive)
EC50 [22]: > 32 µM (inactive)
IC50 [23]: > 32 µM (inactive)
